# Data taken from ChEMBL document CHEMBL5154672, “Design and synthesis of HDAC inhibitors to enhance the therapeutic effect of diffuse large B-cell lymphoma by improving metabolic stability and pharmacokinetic characteristics” (Eur J Med Chem, 2022).
# Assays:
# [1] = AUC (0 to infinity) in CB.17 SCID mouse xenografted with human TMD8 cells at 100 mg/kg, po measured upto 24 hrs by LC-MS/MS analysis; type: ADME, organism-based; set-up: time < 24 hrs, dose 100 mg/kg, route po; conditions: in vivo
# [2] = Metabolic stability in rat liver microsomes assessed as intrinsic clearance measured for 75 to 130 mins by LC-MS/MS analysis; type: ADME, Microsome; conditions: time 75-130 min, read-out: CLH
# DOHH-2 = assay: Antiproliferative activity against human DOHH-2 cells incubated for 72 hrs by luminescence assay; type: functional, cell-based; conditions: DOHH-2, 72 h
# TMD8 [3] = assay: Induction of apoptosis in human TMD8 cells assessed as late apoptotic cells at 4 uM incubated for 24 hrs by Annexin V-FITC/PI staining based flow cytometric analysis (reference value: 1.54%); type: functional
# TMD8 [4] = assay: Induction of apoptosis in human TMD8 cells assessed as early apoptotic cells at 0.5 uM incubated for 24 hrs by Annexin V-FITC/PI staining based flow cytometric analysis (reference value: 0.24%); type: functional
# [5] = Metabolic stability in dog liver microsomes assessed as half life measured for 75 to 130 mins by LC-MS/MS analysis; type: ADME, Canis lupus familiaris, Microsome; conditions: time 75-130 min
# TMD8 [6] = assay: Induction of apoptosis in human TMD8 cells assessed as viable cells at 1 uM incubated for 24 hrs by Annexin V-FITC/PI staining based flow cytometric analysis (reference value: 96.4%); type: functional; conditions: read-out: Activity
# Histone deacetylase 2 = Histone deacetylase 2 (Homo sapiens, UniProt Q92769); assay: Inhibition of HDAC2 (unknown origin) using RHKK(Ac)AMC fluorogenic peptide as substrate preincubated for 10 mins followed by substrate addition for 1 hr in presence of ATP by fluoroscence based assay
# Chain of Histone deacetylase 2 (Q92769 whole entry): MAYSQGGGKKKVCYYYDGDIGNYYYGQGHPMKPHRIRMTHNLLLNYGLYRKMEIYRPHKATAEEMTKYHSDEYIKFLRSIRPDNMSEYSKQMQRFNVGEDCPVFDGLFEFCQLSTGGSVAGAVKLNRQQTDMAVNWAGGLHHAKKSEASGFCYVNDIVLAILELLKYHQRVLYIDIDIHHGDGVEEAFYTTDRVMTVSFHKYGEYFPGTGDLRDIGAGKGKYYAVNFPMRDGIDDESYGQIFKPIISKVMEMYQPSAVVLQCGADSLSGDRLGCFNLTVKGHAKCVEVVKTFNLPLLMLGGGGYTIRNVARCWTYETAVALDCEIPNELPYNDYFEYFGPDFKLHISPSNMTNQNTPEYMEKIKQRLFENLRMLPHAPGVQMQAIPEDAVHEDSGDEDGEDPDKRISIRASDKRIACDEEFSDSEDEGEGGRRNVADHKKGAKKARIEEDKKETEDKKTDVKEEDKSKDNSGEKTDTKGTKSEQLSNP
# 786-0 = assay: Antiproliferative activity against human 786-O cells incubated for 72 hrs by luminescence assay; type: functional, cell-based; conditions: 786-0, 72 h
# TMD8 [7] = assay: Antiproliferative activity against human TMD8 cells assessed as remaining cell activity at 2 uM incubated for 72 hrs by luminescence assay relative to control; type: functional
# [8] = Cmax in CB.17 SCID mouse xenografted with human TMD8 cells at 100 mg/kg, po measured upto 24 hrs by LC-MS/MS analysis; type: ADME, organism-based; set-up: time < 24 hrs, dose 100 mg/kg, route po; conditions: in vivo
# [9] = Half life in ICR mouse at 25 mg/kg, po measured upto 24 hrs by LC-MS/MS analysis; type: ADME, organism-based; conditions: in vivo
# [10] = Aqueous solubility of the compound; type: physicochemical; conditions: aqueous medium
# MOLT-4 = assay: Antiproliferative activity against human MOLT-4 cells incubated for 72 hrs by luminescence assay; type: functional, cell-based; conditions: MOLT-4, 72 h
# SK-OV-3 = assay: Antiproliferative activity against human SK-OV-3 cells incubated for 72 hrs by luminescence assay; type: functional, cell-based; conditions: SK-OV-3, 72 h
# HCT-116 = assay: Antiproliferative activity against human HCT-116 cells assessed as remaining cell activity at 2 uM incubated for 72 hrs by luminescence assay relative to control; type: functional
# MDA-MB-231 [11] = assay: Antiproliferative activity against human MDA-MB-231 cells incubated for 72 hrs by luminescence assay; type: functional, cell-based; conditions: MDA-MB-231, 72 h
# COLO-678 = assay: Antiproliferative activity against human COLO-678 cells incubated for 72 hrs by luminescence assay; type: functional, cell-based; conditions: COLO-678, 72 h
# [12] = AUC (0 to t) in CB.17 SCID mouse xenografted with human TMD8 cells at 50 mg/kg, po measured upto 24 hrs by LC-MS/MS analysis; type: ADME, organism-based; set-up: time < 24 hrs, dose 50 mg/kg, route po; conditions: in vivo
# [13] = Metabolic stability in human liver microsomes assessed as half life measured for 75 to 130 mins by LC-MS/MS analysis; type: ADME, Microsome; conditions: liver microsomes, time 75-130 min
# MDA-MB-231 [14] = assay: Antiproliferative activity against human MDA-MB-231 cells assessed as remaining cell activity at 2 uM incubated for 72 hrs by luminescence assay relative to control; type: functional
# Histone deacetylase 3 = Histone deacetylase 3 (Homo sapiens, UniProt O15379); assay: Inhibition of HDAC3 (unknown origin) using RHKK(Ac)AMC fluorogenic peptide as substrate preincubated for 10 mins followed by substrate addition for 1 hr in presence of ATP by fluoroscence based assay
# Chain of Histone deacetylase 3 (O15379 whole entry): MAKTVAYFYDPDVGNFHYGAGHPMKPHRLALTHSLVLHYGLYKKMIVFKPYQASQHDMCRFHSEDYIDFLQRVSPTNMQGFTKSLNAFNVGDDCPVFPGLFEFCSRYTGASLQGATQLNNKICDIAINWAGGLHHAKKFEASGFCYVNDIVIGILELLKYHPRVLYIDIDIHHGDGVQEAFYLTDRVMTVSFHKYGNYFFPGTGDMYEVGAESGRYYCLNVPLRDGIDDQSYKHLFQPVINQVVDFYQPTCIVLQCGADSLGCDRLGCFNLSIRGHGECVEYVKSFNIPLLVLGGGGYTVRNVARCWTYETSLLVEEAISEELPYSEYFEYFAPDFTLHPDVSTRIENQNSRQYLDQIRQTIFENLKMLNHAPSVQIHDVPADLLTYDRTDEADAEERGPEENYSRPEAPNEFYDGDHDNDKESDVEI
# CCRF-CEM = assay: Antiproliferative activity against human CCRF-CEM cells incubated for 72 hrs by luminescence assay; type: functional, cell-based
# TMD8 [15] = assay: Induction of apoptosis in human TMD8 cells assessed as necrotic cells at 0.5 uM incubated for 24 hrs by Annexin V-FITC/PI staining based flow cytometric analysis (RVB=1.85%); type: functional
# [16] = Metabolic stability in monkey liver microsomes assessed as half life measured for 75 to 130 mins by LC-MS/MS analysis; type: ADME, Macaca fascicularis, Microsome; conditions: cynomolgus monkey, time 75-130 min
# [17] = AUC (0 to infinity) in ICR mouse at 25 mg/kg, po measured upto 24 hrs by LC-MS/MS analysis; type: ADME, organism-based; set-up: time < 24 hrs, dose 25 mg/kg, route po; conditions: in vivo
# [18] = MRT (0 to t) in CB.17 SCID mouse xenografted with human TMD8 cells at 25 mg/kg, po measured upto 24 hrs by LC-MS/MS analysis; type: ADME, organism-based; conditions: in vivo
# TMD8 [19] = assay: Induction of apoptosis in human TMD8 cells assessed as early apoptotic cells at 2 uM incubated for 24 hrs by Annexin V-FITC/PI staining based flow cytometric analysis (reference value: 0.24%); type: functional
# A549 = assay: Antiproliferative activity against human A549 cells incubated for 72 hrs by luminescence assay; type: functional, cell-based; conditions: A549, 72 h
# [20] = AUC (0 to t) in CB.17 SCID mouse xenografted with human TMD8 cells at 25 mg/kg, po measured upto 24 hrs by LC-MS/MS analysis; type: ADME, organism-based; set-up: dose 25 mg/kg, time < 24 hrs, route po; conditions: in vivo
# [21] = MRT(0 to infinity) in CB.17 SCID mouse xenografted with human TMD8 cells at 50 mg/kg, po measured upto 24 hrs by LC-MS/MS analysis; type: ADME, organism-based; conditions: in vivo
# TMD8 [22] = assay: Induction of apoptosis in human TMD8 cells assessed as viable cells at 2 uM incubated for 24 hrs by Annexin V-FITC/PI staining based flow cytometric analysis (reference value: 96.4%); type: functional; conditions: read-out: Activity
# [23] = Metabolic stability in dog liver microsomes assessed as intrinsic clearance measured for 75 to 130 mins by LC-MS/MS analysis; type: ADME, Canis lupus familiaris, Microsome; conditions: time 75-130 min, read-out: CLH
# [24] = MRT in ICR mouse at 25 mg/kg, po measured upto 24 hrs by LC-MS/MS analysis; type: ADME, organism-based; conditions: in vivo
# CWR22R = assay: Antiproliferative activity against human 22Rv1 cells incubated for 72 hrs by luminescence assay; type: functional, cell-based; conditions: 22Rv1, 72 h
structure (smiles),measurement,setting,value
Nc1ccccc1NC(=O)c1ccc(CN2CCC/C(=C\c3ccccn3)C2=O)cc1,AUC(0-inf),[1],9770 ng·h/mL
same,microsomal CLint,[2],13.2 µL/min/mg
same,IC50,DOHH-2,390 nM
same,Activity,TMD8 [3],9.64%
same,Activity,TMD8 [4],0.34%
same,half-life,[5],17.9 h
same,viability at 1 µM,TMD8 [6],92.2%
same,IC50,Histone deacetylase 2,168 nM
same,IC50,786-0,600 nM
same,Activity,TMD8 [7],2.32%
same,Cmax,[8],10700 ng/mL
same,half-life,[9],4.4 h
same,solubility,[10],5 ng/mL
same,IC50,MOLT-4,380 nM
same,IC50,SK-OV-3,3170 nM
same,Activity,HCT-116,44.01%
same,IC50,MDA-MB-231 [11],2290 nM
same,IC50,COLO-678,8020 nM
same,AUC(0-t) at 24 h,[12],9710 ng·h/mL
same,half-life,[13],13.3 h
same,Activity,MDA-MB-231 [14],64.94%
same,IC50,Histone deacetylase 3,443 nM
same,IC50,CCRF-CEM,480 nM
same,Activity,TMD8 [15],2.29%
same,half-life,[16],1.63 h
same,AUC(0-inf),[17],5180 ng·h/mL
same,MRT last at 24 h,[18],0.75 h
same,Activity,TMD8 [19],10.3%
same,IC50,A549,2850 nM
same,AUC(0-t) at 24 h,[20],1220 ng·h/mL
same,MRT inf,[21],0.821 h
same,viability at 2 µM,TMD8 [22],75.3%
same,microsomal CLint,[23],1.32 µL/min/mg
same,MRT,[24],2.6 h
same,IC50,CWR22R,1140 nM
